Molecules are shown by their SMILES. pEC50: −log10 of the molar value.

A word on the pEC50: it is the negative decadic logarithm of the EC50, by convention in mol/L. High values mean a low EC50, low ones a high EC50.

Chain of human GPR119 (Q8TDV5 whole entry): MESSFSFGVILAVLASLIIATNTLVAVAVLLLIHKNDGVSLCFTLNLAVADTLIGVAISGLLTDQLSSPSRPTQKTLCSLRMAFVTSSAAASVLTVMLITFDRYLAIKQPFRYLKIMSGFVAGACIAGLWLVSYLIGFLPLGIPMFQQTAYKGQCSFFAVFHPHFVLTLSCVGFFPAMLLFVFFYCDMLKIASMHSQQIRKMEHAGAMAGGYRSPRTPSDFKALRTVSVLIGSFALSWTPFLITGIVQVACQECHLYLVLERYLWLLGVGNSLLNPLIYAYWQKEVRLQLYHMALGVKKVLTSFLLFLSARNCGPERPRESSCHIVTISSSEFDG

The assay addresses human GPR119 (Homo sapiens (Human), UniProt Q8TDV5). Description: AlphaScreen cAMP assay in MIN6 cells stably transfected with human GPR119. It is filed as cell-based. The settings on record: Min-6/hGPR119 cells, 45 min incubation at room temperature. The method, then: The compounds of formula I according to the invention modulate the activity of the G-protein-coupled receptor GPR119. The effect of the compounds on the activation of GPR119 and on the stimulation of intracellular cAMP concentration is determined using the AlphaScreen cAMP Assay Kit (Cat. No. #6760625R) made by PerkinElmer.
MIN6 cells [Miyazaki J et al. Endocrinology. 1990 July; 127(1):126-32] are stably transfected with an expression vector for human GPR119 cDNA (Acc. No. NP_848566). Min-6/hGPR119 cells are cultured in DMEM, 10% FBS, 50 μM β-mercaptoethanol, 0.3 mg/mL Geniticin, 2 mM GlutaMAX at 37° C. 5% CO2. For the assay, the cells are seeded in Optiplates (white, 384-well, 160W-barcoded, TC, sterile with lid, Cat. No. #6007688 (Perkin Elmer); 10000 cells/well; 50 μl). The plates covered with lids are then incubated for 24 hours at 37° C./5% CO2. After the medium is aspirated from the wells completely, 10 μl of the test compound are added, the compounds are diluted using stimulating buffer (140 mM NaCl, 3.6 mM KCl, 0.5 mM NaH2PO4, 0.5 mM MgSO4, 1.5 mM CaCl2, 10 mM Hepes, 5 mM NaHCO3; pH 7.4. 0.5 mM IBMX and 0.1% BSA, the final DMSO concentration is 1%). After 45 minutes incubation at room temperature (approx. 20° C.), the cAMP concentrations are determined using the AlphaScreen cAMP Assay Kit (Cat. No. #6760625R from PerkinElmer).
For orientation: In Alpha technology, singlet oxygen from a donor bead excites a nearby acceptor bead.
The compound `CC(C)(C)OC(=O)N1CC[C@H](N(C(=O)c2ccc(-c3cnco3)cc2)C2CC2)[C@@H](F)C1` (single isomer, unassigned) [Example 38] showed a pEC50 of 6.76.
Compound `CC(C)(C)OC(=O)N1CC[C@@H](N(C(=O)c2ccc(-c3cnco3)cc2)C2CC2)[C@H](F)C1` (single isomer, unassigned) [Example 39] showed a negative logarithm of the EC50 (pEC50) of 6.20.
Regarding `CC(C)(C)OC(=O)N1CC[C@H](N(C(=O)c2ccc(-c3cnco3)cc2)C2CC2)[C@H](F)C1` (single isomer, unassigned) [Example 40], the pEC50 is 8.70. This pEC50 is 2.50 log units higher than that of the compound before.
In the case of `CC(C)(C)OC(=O)N1CC[C@@H](N(C(=O)c2ccc(-c3cnco3)cc2)C2CC2)[C@@H](F)C1` (single isomer, unassigned) [Example 41], the pEC50 was 7.52.
Under `C[C@@H]1CN(C(=O)OC(C)(C)C)CC[C@@H]1N(C(=O)c1ccc(-c2cnco2)cc1)C1CC1` (single isomer, unassigned) [Example 46] stands 8.15; under `C[C@H]1CN(C(=O)OC(C)(C)C)CC[C@H]1N(C(=O)c1ccc(-c2cnco2)cc1)C1CC1` (single isomer, unassigned) [Example 47], 6.07; under `CC1CC(N(C(=O)c2ccc(-c3cnco3)cc2)C2CC2)CCN1C(=O)OC(C)(C)C` (centres unmarked) [Example 1, 4-[Cyclopropyl-(4-oxazol-5-yl-benzoyl)-amino]-2-methyl-piperidine-1-carboxylic acid tert-butyl ester], 6.80.
Regarding `CC1CN(C(=O)OC(C)(C)C)CCC1N(C(=O)c1ccc(-c2cnco2)cc1)C1CC1` (centres unmarked) [Example 2, 4-[Cyclopropyl-(4-oxazol-5-yl-benzoyl)-amino]-3-methyl-piperidine-1-carboxylic acid tert-butyl ester], the pEC50 is 7.82.
Regarding `C=C(C)OC(=O)N1CCC(N(C(=O)c2ccc(-c3cnco3)cc2)C2CC2)CC1` [Example 3, 4-[Cyclopropyl-(4-oxazol-5-yl-benzoyl)-amino]-piperidine-1-carboxylic acid isopropenyl ester], the pEC50 is 6.91.
In turn, `CC(C)(C)OC(=O)N1CCC(N(C(=O)c2ccc(-c3ocnc3I)cc2)C2CC2)CC1` [Example 4, 4-{Cyclopropyl-[4-(4-iodo-oxazol-5-yl)-benzoyl]-amino}-piperidine-1-carboxylic acid tert-butyl ester] showed a pEC50 of 6.09. Compared with the last compound, the pEC50 is 0.82 log units lower.
In turn, `Cc1nc(-c2ccc(C(=O)N(C3CC3)C3CCN(C(=O)OC(C)(C)C)CC3)cc2)co1` [Example 5, 4-{Cyclopropyl-[4-(2-methyl-oxazol-4-yl)-benzoyl]-amino}-piperidine-1-carboxylic acid tert-butyl ester] gave a pEC50 of 6.05.
`CC(C)(C)OC(=O)N1CCC(N(C(=O)c2ccc(-c3cncs3)cc2)C2CC2)CC1` [Example 6, 4-[Cyclopropyl-(4-thiazol-5-yl-benzoyl)-amino]-piperidine-1-carboxylic acid tert-butyl ester] showed a pEC50 of 7.49.
Take `CC(C)(C)OC(=O)N1CCC(N(C(=O)c2ccc(-c3cnco3)c([N+](=O)[O-])c2)C2CC2)CC1` [Example 7, 4-[Cyclopropyl-(3-nitro-4-oxazol-5-yl-benzoyl)-amino]-piperidine-1-carboxylic acid tert-butyl ester]: the pEC50 is 7.11.
As for `CC(C)(C)OC(=O)N1CCC(N(C(=O)c2ccc(-c3cnco3)c(N)c2)C2CC2)CC1` [Example 8, 4-[(3-Amino-4-oxazol-5-yl-benzoyl)-cyclopropyl-amino]-piperidine-1-carboxylic acid tert-butyl ester], the pEC50 is 6.77.
Consider `COc1cc(C(=O)N(C2CC2)C2CCN(C(=O)OC(C)(C)C)CC2)ccc1-c1cnco1` [Example 9, 4-[Cyclopropyl-(3-methoxy-4-oxazol-5-yl-benzoyl)-amino]-piperidine-1-carboxylic acid tert-butyl ester], for which the pEC50 is 6.19.
Consider `Cc1ncoc1-c1ccc(C(=O)N(C2CC2)C2CCN(C(=O)OC(C)(C)C)CC2)cc1` [Example 10, 4-{Cyclopropyl-[4-(4-methyl-oxazol-5-yl)-benzoyl]-amino}-piperidine-1-carboxylic acid tert-butyl ester], for which the pEC50 is 7.12.
Compound `O=C(OC1CCOCC1)N1CCC(N(C(=O)c2ccc(-c3cnco3)cc2)C2CC2)CC1` [Example 11, 4-[Cyclopropyl-(4-oxazol-5-yl-benzoyl)-amino]-piperidine-1-carboxylic acid tetrahydro-pyran-4-yl ester] had a pEC50 of 6.29.
In the case of `CC(C)(C)OC(=O)N1CCC(N(C(=O)c2ccc(-c3cn[nH]c3)cc2)C2CC2)CC1` [Example 12, 4-{Cyclopropyl-[4-(1H-pyrazol-4-yl)-benzoyl]-amino}-piperidine-1-carboxylic acid tert-butyl ester], the pEC50 was 6.62.
With `Cn1cc(-c2ccc(C(=O)N(C3CC3)C3CCN(C(=O)OC(C)(C)C)CC3)cc2)cn1` [Example 13], the pEC50 was 6.37. Against the preceding compound, the pEC50 is 0.25 log units lower.
In the case of `O=C(OCC1CCOCC1)N1CCC(N(C(=O)c2ccc(-c3cnco3)cc2)C2CC2)CC1` [Example 14, 4-[Cyclopropyl-(4-oxazol-5-yl-benzoyl)-amino]-piperidine-1-carboxylic acid tetrahydro-pyran-4-ylmethyl ester], the pEC50 is 5.97.
`CC(C)(O)COC(=O)N1CCC(N(C(=O)c2ccc(-c3cnco3)cc2)C2CC2)CC1` [Example 15, 4-[Cyclopropyl-(4-oxazol-5-yl-benzoyl)-amino]-piperidine-1-carboxylic acid 2-hydroxy-2-methyl-propyl ester] gave a pEC50 of 5.35.
With `Cc1ccc(-c2ccc(C(=O)N(C3CC3)C3CCN(C(=O)OC(C)(C)C)CC3)cc2)nn1` [Example 16, 4-{Cyclopropyl-[4-(6-methyl-pyridazin-3-yl)-benzoyl]-amino}-piperidine-1-carboxylic acid tert-butyl ester], the pEC50 was 7.12.
The compound `Cn1cnc(-c2ccc(C(=O)N(C3CC3)C3CCN(C(=O)OC(C)(C)C)CC3)cc2)n1` [Example 17, 4-{Cyclopropyl-[4-(1-methyl-1H-[1,2,4]triazol-3-yl)-benzoyl]-amino}-piperidine-1-carboxylic acid tert-butyl ester] showed a pEC50 of 5.65.
On to `Cn1ncnc1-c1ccc(C(=O)N(C2CC2)C2CCN(C(=O)OC(C)(C)C)CC2)cc1` [Example 18, 4-{Cyclopropyl-[4-(2-methyl-2H-[1,2,4]triazol-3-yl)-benzoyl]-amino}-piperidine-1-carboxylic acid tert-butyl ester], for which the pEC50 was 6.00.
Turning to `CC1(OC(=O)N2CCC(N(C(=O)c3ccc(-c4ccc(S(C)(=O)=O)cn4)cc3)C3CC3)CC2)CC1` [Example 19, 4-{Cyclopropyl-[4-(5-methanesulfonyl-pyridin-2-yl)-benzoyl]-amino}-piperidine-1-carboxylic acid 1-methyl-cyclopropyl ester], the pEC50 is 5.75.
Compound `CC1(OC(=O)N2CCC(N(C(=O)c3ccc(-c4cnco4)cc3)C3CC3)CC2)CC1` [Example 20, 4-[Cyclopropyl-(4-oxazol-5-yl-benzoyl)-amino]-piperidine-1-carboxylic acid 1-methyl-cyclopropyl ester] showed a pEC50 of 7.28.
Then `CC(C)(C)OC(=O)N1CCC(N(C(=O)c2ccc(-c3ccc(S(C)(=O)=O)cn3)cc2)C2CC2)CC1` [Example 21, 4-{Cyclopropyl-[4-(5-methanesulfonyl-pyridin-2-yl)-benzoyl]-amino}-piperidine-1-carboxylic acid tert-butyl ester], with 7.13; and `CC(C)(C)OC(=O)N1CCC(N(C(=O)c2ccc(-n3cnnn3)cc2)C2CC2)CC1` [Example 22, 4-[Cyclopropyl-(4-tetrazol-1-yl-benzoyl)-amino]-piperidine-1-carboxylic acid tert-butyl ester], with 6.86.
Compound `CC(C)(C)OC(=O)N1CCC(N(C(=O)c2ccc(-c3ccnnc3)cc2)C2CC2)CC1` [Example 23, 4-[Cyclopropyl-(4-pyridazin-4-yl-benzoyl)-amino]-piperidine-1-carboxylic acid tert-butyl ester] showed a pEC50 of 6.63.
As for `Cc1cc(C(=O)N(C2CC2)C2CCN(C(=O)OC(C)(C)C)CC2)ccc1-c1cnco1` [Example 24, 4-[Cyclopropyl-(3-methyl-4-oxazol-5-yl-benzoyl)-amino]-piperidine-1-carboxylic acid tert-butyl ester], the pEC50 was 7.09.
For `CC(C)(C)OC(=O)N1CCC(N(C(=O)c2ccc(-c3ncon3)cc2)C2CC2)CC1` [Example 25, 4-[Cyclopropyl-(4-[1,2,4]oxadiazol-3-yl-benzoyl)-amino]-piperidine-1-carboxylic acid tert-butyl ester], the pEC50 was 6.62.
`Cc1nnnn1-c1ccc(C(=O)N(C2CC2)C2CCN(C(=O)OC(C)(C)C)CC2)cc1` [Example 26, 4-{Cyclopropyl-[4-(5-methyl-tetrazol-1-yl)-benzoyl]-amino}-piperidine-1-carboxylic acid tert-butyl ester] showed a pEC50 of 6.65.

For the origin of these results see patent publication US9469631B2 (Boehringer Ingelheim International GmbH, priority 2012, dated 2016).
